Legend:
Test in all cases: Test C postemergence, plant response rating
Format in all cases: in vivo
[1] = tested on: wheat (winter wheat, Triticum aestivum); conditions: Triticum aestivum, post-emergence
Procedure, shortened: (§1)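 Preemergence: seeds sown in loam–sand blend or silt loam and sprayed with test chemicals in a non-phytotoxic surfactant-containing solvent. Postemergence: potted plants at 2–18 cm (1–4-leaf stage) sprayed with the same formulation. After 13–15 d in greenhouse, visual rating versus controls on 0 (no effect) to 100 (complete control) scale.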

kochia (Kochia scoparia) = conditions: Bassia scoparia, post-emergence
Procedure, shortened: as §1

[2] = tested on: oat, wild (wild oat Avena fatua); conditions: Avena fatua, post-emergence
Procedure, shortened: as §1

[3] = tested on: galium (catchweed bedstraw, Galium aparine); conditions: Galium, post-emergence
Procedure, shortened: as §1

[4] = tested on: waterhemp (common waterhemp, Amaranthus rudis); conditions: for Plant response rating, Waterhemp: scale 0 to 100; for Waterhemp plant response rating: scale 0 to 100 (0 no effect, 100 complete control)
Procedure, shortened: as §1

[5] = tested on: morningglory (Ipomoea coccinea); conditions: Ipomoea, post-emergence
Procedure, shortened: as §1

[6] = tested on: foxtail, giant (giant foxtail, Setaria faberii); conditions: Setaria faberi, post-emergence
Procedure, shortened: as §1

[7] = tested on: blackgrass (Alopecurus myosuroides); conditions: Alopecurus myosuroides, post-emergence
Procedure, shortened: as §1

[8] = tested on: oilseed rape (Brassica napus); conditions: Brassica napus, post-emergence
Procedure, shortened: as §1

[9] = tested on: ragweed (common ragweed, Ambrosia elatior); conditions: Ambrosia artemisiifolia, post-emergence
Procedure, shortened: as §1

[10] = tested on: velvetleaf (Abutilon theophrasti); conditions: Abutilon theophrasti, post-emergence
Procedure, shortened: as §1

corn (Zea mays) = conditions: Zea mays, post-emergence
Procedure, shortened: as §1

[11] = tested on: chickweed (common chickweed, Stellaria media); conditions: Stellaria media, post-emergence
Procedure, shortened: as §1

[12] = tested on: nutsedge, yellow (yellow nutsedge, Cyperus esculentus); conditions: Cyperus, post-emergence
Procedure, shortened: as §1

soybean (Glycine max) = conditions: Glycine max, post-emergence
Procedure, shortened: as §1

[13] = tested on: lambsquarters (Chenopodium album); conditions: Chenopodium album, post-emergence
Procedure, shortened: as §1

[14] = 125 g ai/ha, scale 0 to 100 (0 no effect, 100 complete control)
[15] = 62 g ai/ha, scale 0 to 100 (0 no effect, 100 complete control)

N#Cc1cccc(Oc2ncc(Cl)cn2)c1CCCCC(F)(F)F [Compound 73, 3-[(5-chloro-2-pyrimidinyl)oxy]-2-(5,5,5-trifluoropentyl)benzonitrile]
plant injury at 16 g/ha ([1]; 16 g ai/ha, scale 0 to 100): 0%
plant injury at 31 g/ha ([1]; 31 g ai/ha, scale 0 to 100): 5%
plant injury at 62 g/ha ([1]; 62 g ai/ha, scale 0 to 100 (0 no effect, 100 complete control), read-out: Wheat plant response rating): 5%
plant injury at 125 g/ha [1, 14]: 5%
pest or weed control at 16 g/ha (kochia (Kochia scoparia); 16 g ai/ha, scale 0 to 100): 98%
pest or weed control at 31 g/ha (kochia (Kochia scoparia); 31 g ai/ha, scale 0 to 100): 100%
pest or weed control at 62 g/ha (kochia (Kochia scoparia); [15]): 100%
pest or weed control at 125 g/ha (kochia (Kochia scoparia); [14]): 100%
pest or weed control at 16 g/ha ([2]; 16 g ai/ha, scale 0 to 100): 5%
pest or weed control at 31 g/ha ([2]; 31 g ai/ha, scale 0 to 100): 5%
pest or weed control at 62 g/ha [2, 15]: 5%
pest or weed control at 125 g/ha [2, 14]: 10%
pest or weed control at 16 g/ha ([3]; 16 g ai/ha, scale 0 to 100): 70%
pest or weed control at 31 g/ha ([3]; 31 g ai/ha, scale 0 to 100): 70%
pest or weed control at 62 g/ha [3, 15]: 75%
pest or weed control at 125 g/ha [3, 14]: 98%
Plant response rating, Waterhemp ([4]; 16 g ai/ha): 85
Plant response rating, Waterhemp ([4]; 31 g ai/ha): 98
Waterhemp plant response rating ([4]; 62 g ai/ha): 100
Waterhemp plant response rating ([4]; 125 g ai/ha): 100
pest or weed control at 16 g/ha ([5]; 16 g ai/ha, scale 0 to 100): 70%
pest or weed control at 31 g/ha ([5]; 31 g ai/ha, scale 0 to 100): 75%
pest or weed control at 62 g/ha [5, 15]: 85%
pest or weed control at 125 g/ha [5, 14]: 75%
pest or weed control at 16 g/ha ([6]; 16 g ai/ha, scale 0 to 100): 15%
pest or weed control at 31 g/ha ([6]; 31 g ai/ha, scale 0 to 100): 25%
pest or weed control at 62 g/ha [6, 15]: 20%
pest or weed control at 125 g/ha [6, 14]: 25%
pest or weed control at 16 g/ha ([7]; 16 g ai/ha, scale 0 to 100): 10%
pest or weed control at 31 g/ha ([7]; 31 g ai/ha, scale 0 to 100): 5%
pest or weed control at 62 g/ha [7, 15]: 40%
pest or weed control at 125 g/ha [7, 14]: 35%
plant injury at 16 g/ha ([8]; 16 g ai/ha, scale 0 to 100): 5%
plant injury at 31 g/ha ([8]; 31 g ai/ha, scale 0 to 100): 80%
plant injury at 62 g/ha [8, 15]: 98%
plant injury at 125 g/ha [8, 14]: 50%
pest or weed control at 16 g/ha ([9]; 16 g ai/ha, scale 0 to 100): 50%
pest or weed control at 31 g/ha ([9]; 31 g ai/ha, scale 0 to 100): 55%
pest or weed control at 62 g/ha [9, 15]: 60%
pest or weed control at 125 g/ha [9, 14]: 65%
pest or weed control at 16 g/ha ([10]; 16 g ai/ha, scale 0 to 100): 40%
pest or weed control at 31 g/ha ([10]; 31 g ai/ha, scale 0 to 100): 60%
pest or weed control at 62 g/ha ([10]; 62 g ai/ha, scale 0 to 100 (0 no effect, 100 complete control), read-out: Velvetleaf plant response rating): 70%
pest or weed control at 125 g/ha [10, 14]: 75%
Corn plant response rating (crop injury, 0 = no effect, 100 = complete kill) at 16 g/ha (corn (Zea mays); 16 g ai/ha, scale 0 to 100): 10%
Corn plant response rating (crop injury, 0 = no effect, 100 = complete kill) at 31 g/ha (corn (Zea mays); 31 g ai/ha, scale 0 to 100): 20%
plant injury at 62 g/ha (corn (Zea mays); [15]): 15%
plant injury at 125 g/ha (corn (Zea mays); [14]): 15%
pest or weed control at 16 g/ha ([11]; 16 g ai/ha, scale 0 to 100): 80%
pest or weed control at 31 g/ha ([11]; 31 g ai/ha, scale 0 to 100): 80%
pest or weed control at 62 g/ha [11, 15]: 90%
pest or weed control at 125 g/ha [11, 14]: 85%
pest or weed control at 16 g/ha ([12]; 16 g ai/ha, scale 0 to 100): 5%
pest or weed control at 31 g/ha ([12]; 31 g ai/ha, scale 0 to 100): 15%
pest or weed control at 62 g/ha [12, 15]: 20%
pest or weed control at 125 g/ha [12, 14]: 30%
plant injury at 16 g/ha (soybean (Glycine max); 16 g ai/ha, scale 0 to 100): 45%
plant injury at 31 g/ha (soybean (Glycine max); 31 g ai/ha, scale 0 to 100): 70%
plant injury at 62 g/ha (soybean (Glycine max); [15]): 75%
plant injury at 125 g/ha (soybean (Glycine max); [14]): 60%
pest or weed control at 16 g/ha ([13]; 16 g ai/ha, scale 0 to 100): 75%
pest or weed control at 31 g/ha ([13]; 31 g ai/ha, scale 0 to 100): 80%
pest or weed control at 62 g/ha [13, 15]: 90%
pest or weed control at 125 g/ha [13, 14]: 98%

From patent US11053204B2, “Pyrimidinyloxy benzene derivatives as herbicides” (FMC Corporation, priority 2015, dated 2021)
